Measurements taken from paper PMC8151276, “An Integrated Approach toward NanoBRET Tracers for Analysis of GPCR Ligand Engagement” (Molecules, 2021).

Columns and labels:
Type in all cases: binding
PTGER3 = biological target: T1, PTGER3 (Homo sapiens, UniProt P43115); assay: NanoBRET screen HiBiT-PTGER3 in HEK293
T1 construct: purchased Promega (in-house HiBiT-GPCR construct library, NanoBRET)
T1 sequence (P43115 1-390): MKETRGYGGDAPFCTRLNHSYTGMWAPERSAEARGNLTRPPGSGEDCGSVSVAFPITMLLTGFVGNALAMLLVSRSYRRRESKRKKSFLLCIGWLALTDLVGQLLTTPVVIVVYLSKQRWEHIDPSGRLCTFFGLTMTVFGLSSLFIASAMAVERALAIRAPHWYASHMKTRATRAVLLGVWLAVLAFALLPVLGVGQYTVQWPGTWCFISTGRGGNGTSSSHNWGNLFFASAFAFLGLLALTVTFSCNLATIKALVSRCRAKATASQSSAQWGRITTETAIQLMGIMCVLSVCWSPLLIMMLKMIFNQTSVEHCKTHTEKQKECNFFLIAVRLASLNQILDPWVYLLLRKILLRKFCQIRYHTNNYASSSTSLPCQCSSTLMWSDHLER
Protocol: (§1) Each tracer candidate was screened across the entire library of HiBiT-GPCR constructs using NanoBRET as the detection modality. As depicted in Figure 4A, the specificity of interactions was evaluated through decrease in BRET due to competitive displacement of a bound tracer by excess parental compound. Each tracer was analyzed for binding to each HiBiT-GPCR fusion in the absence and in the presence of competing parental compound. Briefly, HEK293 cells were transfected with HiBiT-GPCR constructs diluted into promoterless DNA to reduce expression and maximize translocation to the cell surface. Each tracer candidate was then screened at concentrations of 1 μM and 0.1 μM across cells expressing these fusions. Cells were treated for 1.5 h with tracer either alone or in the presence of 20 μM competing parental compound (i.e., control). BRET was measured upon addition of purified LgBiT and subsequent complementation with HiBiT genetically fused to a GPCR. The specificity of interactions was assessed through a decrease in BRET signal due to competitive displacement of the bound tracer. To further gauge the robustness of these interactions, the fold response over the control (i.e., BRETtracer/BRETcontrol) was calculated. We chose a 1.5-fold response, which translates to ≥7-fold signal over noise as the minimal threshold required to score an interaction as positive. […]. Below we highlight the screening results obtained for our exemplary fluorescent tracers based on Clozapine, Amitriptyline and AZD1283.
(§2) HiBiT-GPCR DNA constructs were diluted in 10 mM Tris pH 8 to a final concentration of 0.01 μg/μL, arrayed in 96-well plates and stored at −20 °C. For transfection, HEK293 cells were suspended in Opti-MEM (without phenol red) supplemented with 2% fetal bovine serum (Seradigm) and 100 units/mL penicillin–streptomycin (Gibco) at a final concentration of 220,000 cells/mL and dispensed into white 96-well plates at 90 μL/well. Subsequent transfections and screens were carried using an Agilent Bravo Automated Liquid Handling Platform. First, the 96-well HiBiT DNA arrays were diluted 25-fold in Opti-MEM (without serum or phenol red) to a final concentration of 0.0004 μg/μL and 20 μL of the diluted DNAs were transferred into new 96-well plates. Next, promoterless carrier DNA (1 μg/μL) was diluted 25-fold (0.04 μg/μL) and then dispensed into the diluted arrays at 20 μL/well. Following brief mixing, Viafect transfection reagent (Promega) diluted 16-fold into Opti-MEM was dispensed into the plates at 40 μL/well. After mixing by pipetting, plates were incubated for 10 min on the pipetting station deck. The DNA-transfection reagent complexes were then added to plates containing cells. To facilitate the screen, 10 μL of DNA-transfection reagent complexes were added in duplicates to the top 4 and bottom 4 rows, resulting in two identical 48-well arrays per plate. Plates with transfected cells were incubated for 18–20 h at 37 °C/5% CO2. A screen of each tracer across the entire library using two different concentrations requires duplicate plates of transfected cells. Depending on the number of tracers being screened, transfections can be scaled up using the same ratios. The next day, for each tracer, four 20× screening solutions in tracer dilution buffer (Promega) were prepared: two duplicates at final concentration of 20 μM and two duplicates at a final concentration of 2 μM. A competing unmodified compound was added to one of each duplicate at a final concentration of 400 μM. The four resulting solutions were diluted 4-fold in Opti-MEM without serum or phenol red to generate 5× solutions (5 µM and 0.5 µM tracer +/− 100 μM competing compound). To screen the library, a BioTek MultiFlo FX liquid dispenser was used to dispense 22.5 µL of tracer solution to the top 4 rows and 22.5 µL tracer + competing compound solution to the 4 bottom rows. Plates were briefly mixed on an orbital shaker and incubated for 1.5 h at room temperature. […]

ADORA2B = biological target: T2, ADORA2B (Homo sapiens, UniProt P29275); assay: NanoBRET screen HiBiT-ADORA2B in HEK293
T2 construct: purchased Promega (in-house HiBiT-GPCR construct library, NanoBRET)
T2 sequence (P29275 1-332): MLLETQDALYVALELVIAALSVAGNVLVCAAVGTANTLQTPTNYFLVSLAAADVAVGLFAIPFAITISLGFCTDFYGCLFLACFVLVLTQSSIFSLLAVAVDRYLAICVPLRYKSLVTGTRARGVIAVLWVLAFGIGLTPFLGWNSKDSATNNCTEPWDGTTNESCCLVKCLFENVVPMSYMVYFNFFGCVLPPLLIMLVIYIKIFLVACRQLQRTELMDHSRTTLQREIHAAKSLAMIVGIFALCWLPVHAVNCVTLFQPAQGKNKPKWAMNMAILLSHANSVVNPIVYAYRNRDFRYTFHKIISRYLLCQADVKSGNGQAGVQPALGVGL
Protocol: as §1, §2

ADORA1 = biological target: T3, ADORA1 (Homo sapiens, UniProt P30542); assay: NanoBRET screen HiBiT-ADORA1 in HEK293
T3 construct: purchased Promega (in-house HiBiT-GPCR construct library, NanoBRET)
T3 sequence (P30542 1-326): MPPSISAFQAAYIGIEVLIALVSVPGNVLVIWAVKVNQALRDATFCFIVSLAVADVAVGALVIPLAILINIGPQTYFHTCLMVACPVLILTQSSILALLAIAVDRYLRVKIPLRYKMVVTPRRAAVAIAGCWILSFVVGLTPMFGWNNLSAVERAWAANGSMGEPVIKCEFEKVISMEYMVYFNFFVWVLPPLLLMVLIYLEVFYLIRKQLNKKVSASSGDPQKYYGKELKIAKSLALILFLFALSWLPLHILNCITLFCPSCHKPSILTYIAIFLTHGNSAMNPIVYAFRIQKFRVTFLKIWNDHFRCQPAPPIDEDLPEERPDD
Protocol: as §1, §2

SMILES | NanoBRET Fold Response (PTGER3; PTGER3, 0.1μM tracer) | NanoBRET Fold Response (PTGER3; PTGER3, 1μM tracer) | NanoBRET Fold Response (ADORA2B; ADORA2B, 0.1μM tracer) | NanoBRET Fold Response (ADORA2B; ADORA2B, 1μM tracer) | NanoBRET Fold Response (ADORA1; ADORA1, 0.1μM tracer) | NanoBRET Fold Response (ADORA1; ADORA1, 1μM tracer) | NanoBRET Fold Response (PTGER3; PTGER3, tracer 0.1μM) | NanoBRET Fold Response (PTGER3; PTGER3, tracer 1μM) | NanoBRET Fold Response (ADORA2B; ADORA2B, tracer 0.1μM) | NanoBRET Fold Response (ADORA2B; ADORA2B, tracer 1μM) | NanoBRET Fold Response (ADORA1; ADORA1, tracer 0.1μM) | NanoBRET Fold Response (ADORA1; ADORA1, tracer 1μM) | further results
COc1ccc2[nH]c(-c3ccc(CNC(=O)CCOCCOCCOCCOCCNC(=O)CCc4ccc5n4[B-](F)(F)[N+]4=C(c6ccc[nH]6)C=CC4=C5)cc3)c(CCNC(C)=O)c2n1 [AzomelatoninICO9-2-NB590] |  |  |  |  |  |  |  |  |  |  |  |  | NanoBRET Fold Response (PTGER3; 0.1μM tracer): 1.04; NanoBRET Fold Response (PTGER3; 1μM tracer): 1.20; NanoBRET Fold Response (ADORA2B; 0.1μM tracer): 0.82; NanoBRET Fold Response (ADORA2B; 1μM tracer): 1.21; NanoBRET Fold Response (ADORA1; 0.1μM tracer): 0.91; NanoBRET Fold Response (ADORA1; 1μM tracer): 0.94
O=C(CCOCCOCCOCCOCCNC(=O)CCc1ccc2n1[B-](F)(F)[N+]1=C(c3ccc[nH]3)C=CC1=C2)NCCCN1CCN(C2=Nc3cc(Cl)ccc3Nc3ccccc32)CC1 [Clozapine-a-2-NB590] | 1.03 | 1.12 | 1.01 | 0.67 | 1.00 | 1.01 |  |  |  |  |  |  | 
CN1CCN(C2=Nc3cc(Cl)ccc3Nc3ccc(CNC(=O)CCOCCOCCOCCOCCNC(=O)CCc4ccc5n4[B-](F)(F)[N+]4=C(c6ccc[nH]6)C=CC4=C5)cc32)CC1 [Clozapine-b-2-NB590] | 0.97 | 0.97 | 1.07 | 0.99 | 0.99 | 0.97 |  |  |  |  |  |  | 
CN1CCN(C2=Nc3cc(Cl)ccc3N(CC(=O)NCCOCCOCCOCCOCCNC(=O)CCc3ccc4n3[B-](F)(F)[N+]3=C(c5ccc[nH]5)C=CC3=C4)c3ccccc32)CC1 [Clozapine-c-2-NB590] | 1.00 | 1.11 | 1.07 | 0.91 | 1.00 | 0.87 |  |  |  |  |  |  | 
O=C(CCOCCOCCOCCOCCNC(=O)CCc1ccc2n1[B-](F)(F)[N+]1=C(c3ccc[nH]3)C=CC1=C2)NCCCN1CCN(C2=Nc3ccccc3Oc3ccc(Cl)cc32)CC1 [Loxapine-a-2-NB590] |  |  |  |  |  |  | 0.98 | 0.98 | 1.41 | 0.62 | 1.13 | 1.04 | 
COc1ccccc1N1CCN(CCCCN2C(=O)c3ccc(CNC(=O)CCOCCOCCOCCOCCNC(=O)CCc4ccc5n4[B-](F)(F)[N+]4=C(c6ccc[nH]6)C=CC4=C5)cc3C2=O)CC1 [NAN-190-2-NB590] |  |  |  |  |  |  | 1.00 | 1.02 | 0.94 | 0.64 | 1.10 | 0.92 | 
COc1ccccc1N1CCN(CCCCN2C(=O)c3ccc(CNC(=O)CCOCCNC(=O)c4ccc(CNC(=O)CCc5ccc6n5[B-](F)(F)[N+]5=C(c7ccc[nH]7)C=CC5=C6)cc4)cc3C2=O)CC1 [NAN-190-3-NB590] |  |  |  |  |  |  | 0.99 | 0.64 | 0.94 | 1.30 | 1.07 | 0.89 | 
